Assay results reported in patent publication US20230329236A1, “HERBICIDAL PYRIMIDINE DERIVATIVES” (MoA Technology Limited, priority 2020, published 2023).

Assays:
Details in all cases: 336 h, Table 3, post-emergence, 14±1 days post application
[1] = system: Echinochloa crus-gaffi (ECHCG); assay: Post-emergence glasshouse test, visual injury, ECHCG; assay type: in vivo, Echinochloa crus-galli
Procedure, shortened: (§1)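 Post-emerg. spray, BBCH 12-14; acetone/water 50:50 + 0.5% Tween 20; rate as g a.i./ha. Glasshouse, sandy loam soil. Read: % visual injury vs untreated, 14±1 d after application.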

[2] = system: Veronica persica (VERPE); assay: Post-emergence glasshouse test, visual injury, VERPE; assay type: in vivo
Procedure, shortened: as §1

[3] = system: Amaranthus retroflexus (AMARE); assay: Post-emergence glasshouse test, visual injury, AMARE; assay type: in vivo
Procedure, shortened: as §1

[4] = system: Lolium multiflorum (LOLMU); assay: Post-emergence glasshouse test, visual injury, LOLMU; assay type: in vivo
Procedure, shortened: as §1

Compound | pest or weed control at 500 g/ha [1] [%] | pest or weed control at 500 g/ha [2] [%] | pest or weed control at 500 g/ha [3] [%] | pest or weed control at 500 g/ha [4] [%] | pest or weed control at 125 g/ha [1] [%] | pest or weed control at 125 g/ha [2] [%] | pest or weed control at 125 g/ha [3] [%] | pest or weed control at 125 g/ha [4] [%] | other results
Cc1cc(-c2cnc(NCc3ccncc3F)nc2C(C)C)on1 [Compound 95] |  |  |  |  |  |  |  |  | pest or weed control at 62 g/ha [1]: 60%; pest or weed control at 62 g/ha [2]: 60%; pest or weed control at 62 g/ha [3]: 30%; pest or weed control at 62 g/ha [4]: 30%
Cc1cc(-c2cnc(NCCc3c(C)noc3C)nc2C(C)(C)C)on1 [Compound 68] | 0 | 0 | 80 | 0 |  |  |  |  | 
Cc1cc(-c2cnc(NCc3ccc(F)cc3)nc2C(F)F)on1 [Compound 120] |  |  |  |  | 20 | 40 | 30 | 0 | 
Cc1cc(-c2cnc(NCC3CCCC3)nc2C(C)C)on1 [Compound 107] |  |  |  |  | 50 | 50 | 30 | 0 | 
Cc1cc(-c2cnc(N3CCC(C(N)=O)CC3)nc2C(C)(C)C)on1 [Compound 26] | 30 | 60 | 0 | 0 |  |  |  |  | 
Cc1cc(-c2cnc(NCC3CCCO3)nc2-c2ccc(C)o2)on1 (stereo not drawn) [Compound 86] |  |  |  |  |  |  |  |  | pest or weed control at 1000 g/ha [1]: 0%; pest or weed control at 1000 g/ha [2]: 70%; pest or weed control at 1000 g/ha [3]: 0%; pest or weed control at 1000 g/ha [4]: 0%
Cc1cc(-c2cnc(NCc3ccc(F)cn3)nc2C(C)C)on1 [Compound 96] |  |  |  |  |  |  |  |  | pest or weed control at 62 g/ha [1]: 40%; pest or weed control at 62 g/ha [2]: 50%; pest or weed control at 62 g/ha [3]: 50%; pest or weed control at 62 g/ha [4]: 0%
Cc1cc(-c2cnc(NCC3CCCCC3)nc2C(C)C)on1 [Compound 108] |  |  |  |  | 20 | 50 | 50 | 0 | 
Cc1cc(-c2cnc(N3CCCC(O)C3)nc2C2CC2)on1 (stereo not drawn) [Compound 57] | 50 | 0 | 70 | 0 |  |  |  |  | 
Cc1cc(-c2cnc(N)nc2-c2ccc(C)o2)on1 [Compound 2, 5-(3-methyl-1,2-oxazol-5-yl)-4-(5-methylfuran-2-yl)pyrimidin-2-amine] | 10 | 0 | 30 | 40 |  |  |  |  | 
Cc1cc(-c2cnc(NC3CCCC3)nc2C(F)F)on1 [Compound 119] |  |  |  |  | 0 | 0 | 50 | 0 | 
Cc1cc(-c2cnc(N3CCCCC3)nc2C(C)C)on1 [Compound 56] | 0 | 0 | 70 | 10 |  |  |  |  | 
Cc1cc(-c2cnc(NCc3ccc(F)cc3)nc2C)on1 [Compound 128] |  |  |  |  | 30 | 95 | 95 | 30 | 
COCCNc1ncc(-c2cc(C)no2)c(-c2ccncc2)n1 [Compound 66] | 20 | 70 | 70 | 60 |  |  |  |  | 
Cc1cc(-c2cnc(N3CCC(O)C(C)C3)nc2C2CC2)on1 (stereo not drawn) [Compound 60] | 30 | 60 | 60 | 70 |  |  |  |  | 
Cc1cc(-c2cnc(N3CCOCC3)nc2-c2ccc(C)o2)on1 [Compound 72] | 30 | 0 | 90 | 0 |  |  |  |  | 

Compound | pest or weed control at 500 g/ha [1] [%] | pest or weed control at 500 g/ha [2] [%] | pest or weed control at 500 g/ha [3] [%] | pest or weed control at 500 g/ha [4] [%] | pest or weed control at 125 g/ha [1] [%] | pest or weed control at 125 g/ha [2] [%] | pest or weed control at 125 g/ha [3] [%] | pest or weed control at 125 g/ha [4] [%] | other results
Cc1cc(-c2cnc(NCc3cccnc3)nc2C(C)(C)C)on1 [Compound 75] | 40 | 90 | 98 | 70 |  |  |  |  | 
Cc1cc(-c2cnc(N3CCCC3)nc2-c2ccc(C)o2)on1 [Compound 58] | 10 | 0 | 0 | 20 |  |  |  |  | 
COCCNc1ncc(-c2cc(C)no2)c(-c2ccc(C)o2)n1 [Compound 65] | 30 | 0 | 60 | 0 |  |  |  |  | 
Cc1cc(-c2cnc(NCC3CCC3)nc2C(C)C)on1 [Compound 87] |  |  |  |  | 80 | 70 | 50 | 30 | 
Cc1cc(-c2cnc(NCc3ccc(Cl)cc3)nc2C(C)C)on1 [Compound 102] |  |  |  |  | 80 | 100 | 100 | 40 | pest or weed control at 62 g/ha [1]: 80%; pest or weed control at 62 g/ha [2]: 80%; pest or weed control at 62 g/ha [3]: 98%; pest or weed control at 62 g/ha [4]: 20%
COCCCNc1ncc(-c2cc(C)no2)c(C(C)C)n1 [Compound 32] | 100 | 90 | 90 | 0 |  |  |  |  | 
Cc1cc(-c2cnc(NC3CCCc4sc(Cl)cc43)nc2C(C)C)on1 (stereo not drawn) [Compound 3] |  |  |  |  | 60 | 10 | 60 | 0 | 
Cc1cc(-c2cnc(N3CCC(C(N)=O)CC3)nc2-c2ccc(C)o2)on1 [Compound 19] |  |  |  |  |  |  |  |  | pest or weed control at 1000 g/ha [1]: 20%; pest or weed control at 1000 g/ha [2]: 0%; pest or weed control at 1000 g/ha [3]: 70%; pest or weed control at 1000 g/ha [4]: 0%
CCNc1ncc(-c2cc(C)no2)c(C(C)C)n1 [Compound 11] |  |  |  |  |  |  |  |  | pest or weed control at 250 g/ha [1]: 80%; pest or weed control at 250 g/ha [2]: 70%; pest or weed control at 250 g/ha [3]: 100%; pest or weed control at 250 g/ha [4]: 0%
Cc1cc(-c2cnc(NC3CCc4sc(Cl)cc43)nc2C(C)C)on1 (stereo not drawn) [Compound 4] |  |  |  |  | 50 | 98 | 95 | 0 | 
Cc1cc(-c2cnc(NC3CCCC3)nc2C2CCC2)on1 [Compound 104] |  |  |  |  | 0 | 60 | 40 | 0 | 
Cc1cc(-c2cnc(N(C)C3CCCC3)nc2C(F)(F)F)on1 [Compound 112] |  |  |  |  | 0 | 0 | 20 | 20 | 
Cc1cc(-c2cnc(NCc3ccccc3Cl)nc2C(C)C)on1 [Compound 101] |  |  |  |  |  |  |  |  | pest or weed control at 62 g/ha [1]: 70%; pest or weed control at 62 g/ha [2]: 40%; pest or weed control at 62 g/ha [3]: 50%; pest or weed control at 62 g/ha [4]: 0%
Cc1cc(-c2cnc(NC3CCOCC3)nc2C(C)C)on1 [Compound 6] |  |  |  |  | 90 | 90 | 60 | 50 | pest or weed control at 250 g/ha [1]: 98%; pest or weed control at 250 g/ha [2]: 100%; pest or weed control at 250 g/ha [3]: 100%; pest or weed control at 250 g/ha [4]: 20%
Cc1cc(-c2cnc(NC3CCCCC3)nc2C(F)(F)F)on1 [Compound 125] |  |  |  |  | 50 | 0 | 70 | 20 | 
